Measured values reported in patent US20120022121A1, “INDOLES, DERIVATIVES AND ANALOGS THEREOF AND USES THEREFOR” (priority 2007, published 2012).

Tests used:
[1] = system: CV-1; test: Cell viability SRB assay, 96 h; format: cell-based; conditions: Cercopithecidae, CV-1 fibroblast cell line
Method: (§1) Cells were plated in 96-well plates at a density of 800-5,000 cells/well, depending on the cell line, in their required growth media containing 10% fetal bovine serum. Preliminary studies were performed with each cell line using a variety of cell densities and incubation times to determine appropriate seeding densities. The compound of interest was dissolved in DMSO, diluted in cell culture medium (final DMSO concentration was less than 0.5% v/v), and added to quadruplicate wells at final concentrations ranging from 0 to 100 μM. Control wells to which only drug-free vehicle was added were included as negative controls.
(§2) Cells were incubated for 96 hour at 37° C. in a humidified atmosphere containing 5% carbon dioxide.

[2] = system: LNCaP; test: Cell viability SRB assay, 96 h; format: cell-based; conditions: Homo sapiens
Method: (§3) Cell viability (LNCaP, PC-3 prostate, DU145, PPC-1, and TSU-Pr1 prostate cancer cell lines, HT-29 colon cancer cell line, and MCF-7 breast cancer cell line) was quantitated using the sulforhodamine B (SRB) assay after 96 h coincubation with different concentrations of compound in 96-well plates. Cell viability of leukemia cells (K562 and doxorubicin-resistant K562/Dox) was quantitated by MTT assay after 96 h coincubation with different concentrations of compound in 96-well plates. Drug-induced apoptosis was determined by anti-histone ELISA assay and DNA laddering. Cell cycle progression was assessed by propidium iodide staining and fluorescence-activated cell sorting (FACS) analysis. In vitro tubulin polymerization assay was determined by CytoDYNAMIX ScreenTM3 (CDS-03) kits according to the manufacturer's instructions. Anti-apoptosis protein (Bcl-2 and Bcl-xl) and pro-apoptosis protein (Bax) were examined in LNCaP and PC-3 after 24 h incubation with different concentrations of compound 13 by Western blot assay. In vivo PC-3 xenograft studies were conducted by i.v. dosing of 50 mg/kg, 100 mg/kg and 150 mg/kg for 2 weeks.
as §1, §2
(§4) Cells were stained with SRB solution. […] WinNonlin was provided by a Pharsight Academic License to The Ohio State University.

[3] = system: DU-145; test: Cell viability SRB assay, 96 h; format: cell-based; conditions: Homo sapiens, DU-145, 96 h
Method: as §3, §1, §2, §4

[4] = system: TSU; test: Cell viability SRB assay, 96 h; format: cell-based; conditions: Homo sapiens, TSU (TSU-Pr1)
Method: as §3, §1, §2, §4

[5] = system: PC-3; test: Cell viability SRB assay, 96 h; format: cell-based; conditions: Homo sapiens, PC-3, 96 h
Method: as §3, §1, §2, §4

[6] = system: PPC-1; test: Cell viability SRB assay, 96 h; format: cell-based; conditions: Homo sapiens, PPC-1, 96 h
Method: as §3, §1, §2, §4

[7] = system: MCF-7; test: Cell viability SRB assay, 96 h; format: cell-based; conditions: Homo sapiens, MCF7; MCF-7, 96 h
Method: as §3, §1, §2, §4

[8] = system: HT-29; test: Cell viability SRB assay, 96 h; format: cell-based; conditions: Homo sapiens, HT-29, 96 h
Method: as §3, §1, §2, §4

[9] = Rotarod performance; format: in vivo, ICR mice; conditions: 0.5 mg/kg i.p. q2d
Method: The training and rotarod test was conducted as described previously. Briefly, during the training phase for 2 consecutive days (3 trials/day), mice (10 mice/group) were trained to run in a rotarod apparatus without falling at a constant speed (12 rpm) for a maximum of 2 min. For the rotarod performance test, duration of each trial was less than 5 min. […] Tests were performed for 2 weeks (2 days/week). The animals were tested in three trials per day with an intertrial interval of 30 min. Animal performance was recorded as the average elapsed time for the mice to fall off.

[10] = system: A375; test: Cytotoxicity assay (SRB, 48 h); format: cell-based, human
[11] = system: Du 145; test: Cytotoxicity assay (SRB, 96 h); format: cell-based; conditions: Homo sapiens; Du 145, 96 h
[12] = system: melanoma and prostate cancer cell lines; test: Cytotoxicity assay (SRB), summary over the cell lines of Table 3; format: cell-based; conditions: Homo sapiens
[13] = system: PC-3; test: Cytotoxicity assay (SRB, 96 h); format: cell-based; conditions: Homo sapiens, PC-3, 96 h
[14] = system: LNCaP; test: Cytotoxicity assay (SRB, 96 h); format: cell-based; conditions: Homo sapiens
[15] = system: PPC-1; test: Cytotoxicity assay (SRB, 96 h); format: cell-based; conditions: Homo sapiens, PPC-1, 96 h
[16] = system: WM164; test: Cytotoxicity assay (SRB, 48 h); format: cell-based, human; conditions: WM164 melanoma
[17] = Homo sapiens, A-375, 48 h, A375 melanoma

Row | IC50 [2] | IC50 [3] | IC50 [5] | melting point | Compound | IC50 [1] | IC50 [4] | IC50 [6] | IC50 [11] | IC50 [12] | IC50 [13] | IC50 [14] | IC50 [15] | further results
1 | > 100 µM | > 100 µM | > 100 µM | 189 to 190 °C | O=C(c1cccc(-c2cc3ccccc3n2S(=O)(=O)c2ccccc2)c1)c1cc2ccccc2n1S(=O)(=O)c1ccccc1 [Compound 12, (1-Benzenesulfonyl-1H-indol-2-yl)-[3-(1-benzenesulfonyl-1H-indol-2-yl)phenyl]methanone] | > 100 µM | > 100 µM | > 100 µM |  |  |  |  |  | 
2 |  |  |  | 252 to 254 °C | COc1cc(C(=O)c2cc3cc(Cl)ccc3[nH]2)cc(OC)c1OC [Compound 115, (5-Chloro-1H-indol-2-yl)(3,4,5-trimethoxyphenyl)methanone] |  |  |  | > 10 µM | 1 to 10 µM | > 10 µM | > 10 µM | > 10 µM | IC50 ([10]; A375 melanoma): 1.47 µM; IC50 [16]: 2.16 µM
3 | 23.1 ± 4 µM | 72 ± 3.4 µM | 73.9 ± 7.1 µM |  | O=S(=O)(c1ccccc1)n1c(B(O)O)cc2ccccc21 [Compound 7, 1-(phenylsulfonyl)-1H-indol-2-yl-boronic acid, reference compound] | > 100 µM | 48.2 ± 3.4 µM | 80.8 ± 1.2 µM |  |  |  |  |  | 
4 |  |  |  | 191 to 193 °C | COc1cc(C(=O)c2nc3ccccc3[nH]2)cc(OC)c1OC [Compound 118, (1H-benzo[d]imidazol-2-yl)(3,4,5-trimethoxyphenyl)methanone] |  |  |  | > 10 µM | > 10 µM | > 10 µM | > 10 µM | > 10 µM | IC50 [10, 17]: > 10 µM; IC50 ([16]; Homo sapiens, WM164, 48 h): > 10 µM
5 | 18.3 ± 1.4 µM | 55.1 ± 2.5 µM | 59.9 ± 1.8 µM |  | O=S(=O)(c1ccccc1)n1cc(B(O)O)c2ccccc21 [Compound 129, reference compound] | > 100 µM | 39.3 ± 1.6 µM | 41.1 ± 1.8 µM |  |  |  |  |  | 
6 | 0.051 µM | 0.131 µM | 0.069 ± 0.012 µM |  | COc1ccc(C(=O)c2cccc(-c3cc4ccccc4[nH]3)c2)cc1OC [Compound 83, (3,4-Dimethoxy-phenyl)-[3-(1H-indol-2-yl)-phenyl]-methanone] |  | 0.044 µM | 0.04 µM |  |  |  |  |  | IC50 [7]: 0.043 µM; IC50 [8]: 0.119 µM

The remaining lines, values behind:

Row | Compound | IC50 [2] | IC50 [3] | IC50 [5] | melting point | IC50 [1] | IC50 [4] | IC50 [6] | IC50 [11] | IC50 [12] | IC50 [13] | IC50 [14] | IC50 [15] | further results
7 | c1ccc2c(Cc3c[nH]c4ccccc34)c[nH]c2c1 [Compound 128, di(1H-indol-3-yl)methane, reference compound] | 5.8 ± 0.5 µM | 39.7 ± 2.6 µM | 39.4 ± 1.7 µM |  | > 100 µM | 45.7 ± 1.1 µM | 31.8 ± 1.1 µM |  |  |  |  |  | 
8 | COc1cc(OC)cc(C(=O)c2cccc(-c3cc4ccccc4[nH]3)c2)c1 [Compound 82, (3,5-Dimethoxy-phenyl)-[3-(1H-indol-2-yl)-phenyl]-methanone] | 0.082 µM | 0.134 µM | 0.075 ± 0.016 µM |  |  | 0.065 µM | 0.069 µM |  |  |  |  |  | IC50 [7]: 0.054 µM; IC50 [8]: 0.092 µM
9 | COc1cccc(C(=O)c2cccc(-c3cc4ccccc4[nH]3)c2)c1 [Compound 81, [3-(1H-Indol-2-yl)-phenyl]-(3-methoxy-phenyl)-methanone] | 0.047 µM | 0.129 µM | 0.072 ± 0.013 µM |  |  | 0.042 µM | 0.043 µM |  |  |  |  |  | IC50 [7]: 0.043 µM; IC50 [8]: 0.1 µM
10 | CC[C@]1(O)C[C@H]2CN(CCc3c([nH]c4ccccc34)[C@@](C(=O)OC)(c3cc4c(cc3OC)N(C=O)[C@H]3[C@@](O)(C(=O)OC)[C@H](OC(C)=O)[C@]5(CC)C=CCN6CC[C@]43[C@@H]65)C2)C1 [vincristine] |  |  |  |  |  |  |  |  |  |  |  |  | rotarod performance ([9]; day 4 to day 14): impaired performance; mean time on the rotating rod ([9]; end of 2 weeks (vehicle 151 s)): 104 s
11 | COc1cc(C(=O)c2nc3ccccc3s2)cc(OC)c1OC [Compound 123a, Benzo[d]thiazol-2-yl(3,4,5-trimethoxyphenyl)methanone] |  |  |  | 144 to 146 °C |  |  |  | > 10 µM | > 10 µM | > 10 µM | > 10 µM | > 10 µM | IC50 [10, 17]: > 10 µM; IC50 ([16]; Homo sapiens, WM164, 48 h): > 10 µM
12 | O=S(=O)(c1ccccc1)n1c(Br)cc2ccccc21 [Compound 3, 2-bromo-1-(benzenesulfonyl)indole] | 29.6 ± 2.2 µM | 63.9 ± 1.9 µM | 69.3 ± 2.1 µM |  | > 100 µM | 44.9 ± 2 µM | 52.1 ± 1.1 µM |  |  |  |  |  | 
13 | COc1cc(C(=O)c2nc3ccccc3o2)cc(OC)c1OC [Compound 123b, Benzo[d]oxazol-2-yl(3,4,5-trimethoxyphenyl)methanone] |  |  |  | 89 to 91 °C |  |  |  | > 10 µM | > 10 µM | > 10 µM | > 10 µM | > 10 µM | IC50 [10, 17]: > 10 µM; IC50 ([16]; Homo sapiens, WM164, 48 h): > 10 µM
14 | O=Cc1cccc(-c2cc3ccccc3n2S(=O)(=O)c2ccccc2)c1 [Compound 5] | 17.7 ± 1.2 µM | 19.7 ± 1.3 µM | 23.2 ± 1.4 µM | 126 to 138 °C | > 100 µM | 11.5 ± 0.1 µM | 13.9 ± 0.2 µM |  |  |  |  |  | 
15 | COc1ccc2cc(C(=O)c3cc(OC)c(OC)c(OC)c3)[nH]c2c1 [Compound 114, (6-Methoxy-1H-indol-2-yl)(3,4,5-trimethoxyphenyl)methanone] |  |  |  | 167 to 169 °C |  |  |  | > 10 µM | > 10 µM | > 10 µM | > 10 µM | > 10 µM | IC50 ([10]; Homo sapiens, A-375, A375 melanoma): > 10 µM; IC50 ([16]; Homo sapiens): > 10 µM
16 | COc1cc(C(=O)c2cccc(-c3cc4cc(F)ccc4[nH]3)c2)cc(OC)c1OC [Compound 90, [3-(5-Fluoro-1H-indol-2-yl)-phenyl]-(3,4,5-trimethoxy-phenyl)-methanone] | 0.032 µM | 0.028 µM | 0.031 ± 0.004 µM |  |  |  | 0.028 µM |  |  |  |  |  | IC50 [7]: 0.039 µM
17 | COc1cc(C(O)(c2nc3ccccc3s2)c2nc3ccccc3s2)cc(OC)c1OC [Compound 127, Bis(benzo[d]thiazol-2-yl)(3,4,5-trimethoxyphenyl)methanol] |  |  |  | 50 to 52 °C |  |  |  | > 10 µM | > 10 µM | > 10 µM | > 10 µM | > 10 µM | IC50 [10, 17]: > 10 µM; IC50 ([16]; Homo sapiens, WM164, 48 h): > 10 µM
18 | c1cc(Cc2cc3ccccc3[nH]2)cc(-c2cc3ccccc3[nH]2)c1 [Compound 10, (1H-Indol-2-yl)-[3-(1H-indol-2-yl)phenyl]methane] | > 50 µM | 18.4 µM | > 50 µM | 193 to 194 °C | > 50 µM | 20 to 50 µM | > 50 µM |  |  |  |  |  | IC50 [8]: 0.72 µM
19 | O=S(=O)(c1ccccc1)n1c(-c2cccc(C(O)c3cc4ccccc4n3S(=O)(=O)c3ccccc3)c2)cc2ccccc21 (stereo not drawn) [Compound 8, (1-benzenesulfonyl-1H-indol-2-yl)-[3-(1-benzenesulfonyl-1H-indol-2-yl)phenyl]methanol] | > 100 µM | > 100 µM | > 100 µM | 81 to 83 °C | > 100 µM | > 100 µM | 30 µM |  |  |  |  |  | 
